According to ChEMBL document CHEMBL1681651, “A broad spectrum anticancer nucleoside with selective toxicity against human colon cells in vitro” (2011):

Key:
Assay type in all cases: functional
LOX IMVI [1] = assay: Growth inhibition of human LOXIMVI cells assessed as cell growth at 0.1 uM after 48 hrs by SRB assay; details: read-out: Activity
NCI/ADR-RES [2] = assay: Growth inhibition of human NCI/ADR-RES cells assessed as cell growth at 0.1 uM after 48 hrs by SRB assay; details: read-out: Activity
LOX IMVI [3] = assay: Growth inhibition of human LOXIMVI cells assessed as cell growth at 10 uM after 48 hrs by SRB assay; details: read-out: Activity
SF-295 [4] = assay: Growth inhibition of human SF295 cells assessed as cell growth at 100 uM after 48 hrs by SRB assay; details: SF-295, 48 h, read-out: Activity
MDA-MB-435 = assay: Growth inhibition of human MDA-MB-435 cells assessed as cell growth at 1 uM after 48 hrs by SRB assay; details: MDA-MB-435, 48 h, read-out: Activity
A498 = assay: Growth inhibition of human A498 cells assessed as cell growth at 1 mM after 48 hrs by SRB assay; details: A498, 48 h, read-out: Activity
OVCAR-5 = assay: Growth inhibition of human OVCAR5 cells assessed as cell growth at 100 uM after 48 hrs by SRB assay; details: OVCAR-5, 48 h, read-out: Activity
BT-549 = assay: Growth inhibition of human BT549 cells after 48 hrs by […] growth inhibition assay; details: BT-549, 48 h
HL-60(TB) = assay: Growth inhibition of human HL-60(TB) cells assessed as cell growth at 10 uM after 48 hrs by SRB assay; details: HL-60, 48 h, read-out: Activity
KM12 [5] = assay: Growth inhibition of human KM12 cells assessed as cell growth at 10 uM after 48 hrs by SRB assay; details: KM12, 48 h, read-out: Activity
SF-268 = assay: Growth inhibition of human SF268 cells assessed as cell growth at 100 uM after 48 hrs by SRB assay; details: SF-268, 48 h, read-out: Activity
EKVX = assay: Growth inhibition of human EKVX cells assessed as cell growth at 100 uM after 48 hrs by SRB assay; details: read-out: Activity
UACC-62 = assay: Growth inhibition of human UACC62 cells assessed as cell growth at 0.1 uM after 48 hrs by SRB assay; details: UACC-62, 48 h, read-out: Activity
KM12 [6] = assay: Growth inhibition of human KM12 cells after 48 hrs by […] growth inhibition assay; details: KM12, 48 h
COLO 205 = assay: Growth inhibition of human COLO205 cells assessed as cell growth at 10 uM after 48 hrs by SRB assay; details: COLO 205, 48 h, read-out: Activity
SK-MEL-5 [7] = assay: Growth inhibition of human SK-MEL-5 cells assessed as cell growth at 100 uM after 48 hrs by SRB assay; details: SK-MEL-5, 48 h, read-out: Activity
SK-MEL-5 [8] = assay: Growth inhibition of human SK-MEL-5 cells after 48 hrs by […] growth inhibition assay; details: SK-MEL-5, 48 h
NCI-H322M = assay: Growth inhibition of human NCI-H322M cells assessed as cell growth at 1 mM after 48 hrs by SRB assay; details: read-out: Activity
ACHN = assay: Growth inhibition of human ACHN cells assessed as cell growth at 1 mM after 48 hrs by SRB assay; details: read-out: Activity
A549 = assay: Growth inhibition of human A549 cells assessed as cell growth at 1 uM after 48 hrs by SRB assay; details: A549, 48 h, read-out: Activity
MDA-MB-468 = assay: Growth inhibition of human MDA-MB-468 cells after 48 hrs by […] growth inhibition assay; details: MDA-MB-468, 48 h, read-out: LC50 (the source's name)
IGROV-1 = assay: Growth inhibition of human IGROV1 cells assessed as cell growth at 1 uM after 48 hrs by SRB assay; details: IGROV-1, 48 h, read-out: Activity
NCI/ADR-RES [9] = assay: Growth inhibition of human NCI/ADR-RES cells assessed as cell growth at 100 uM after 48 hrs by SRB assay; details: read-out: Activity
SK-MEL-28 = assay: Growth inhibition of human SK-MEL-28 cells after 48 hrs by […] growth inhibition assay; details: SK-MEL-28, 48 h
SN12C = assay: Growth inhibition of human SN12C cells assessed as cell growth at 1 uM after 48 hrs by SRB assay; details: read-out: Activity
SNB-19 = assay: Growth inhibition of human SNB19 cells assessed as cell growth at 1 uM after 48 hrs by SRB assay; details: SNB-19, 48 h, read-out: Activity
HCT-116 [10] = assay: Growth inhibition of human HCT116 cells after 48 hrs by […] growth inhibition assay; details: HCT-116, 48 h
SF-295 [11] = assay: Growth inhibition of human SF295 cells assessed as cell growth at 1 uM after 48 hrs by SRB assay; details: SF-295, 48 h, read-out: Activity
HCT-116 [12] = assay: Growth inhibition of human HCT116 cells assessed as cell growth at 10 uM after 48 hrs by SRB assay; details: HCT-116, 48 h, read-out: Activity
OVCAR-4 = assay: Growth inhibition of human OVCAR4 cells assessed as cell growth at 1 uM after 48 hrs by SRB assay; details: OVCAR-4, 48 h, read-out: Activity
PC-3 = assay: Growth inhibition of human PC3 cells after 48 hrs by […] growth inhibition assay; details: PC-3, 48 h, read-out: LC50 (the source's name)
MDA-MB-231 = assay: Growth inhibition of human MDA-MB-231 cells assessed as cell growth at 1 uM after 48 hrs by SRB assay; details: MDA-MB-231, 48 h, read-out: Activity
SF-295 [13] = assay: Growth inhibition of human SF295 cells assessed as cell growth at 0.1 uM after 48 hrs by SRB assay; details: SF-295, 48 h, read-out: Activity
[14] = read-out: LC50 (the source's name)
[15] = read-out: pLC50 (the source's name) (converted)

## CNC(=O)NC[C@H]1O[C@@H](n2cnc3c(NC(=O)Nc4ccccc4)ncnc32)[C@H](O[Si](C)(C)C(C)(C)C)[C@@H]1CC(=O)N(C)OC
LOX IMVI [1]
  growth at 0.1 µM: 97%
NCI/ADR-RES [2]
  growth at 0.1 µM: 109%
LOX IMVI [3]
  growth at 10 µM: 94%
SF-295 [4]
  growth at 100 µM: 48%
MDA-MB-435
  growth at 1 µM: 97%
A498
  growth at 1000 µM: -16%
OVCAR-5
  growth at 100 µM: 71%
BT-549; read-out: GI50
  GI50: 29 µM
BT-549; [14]
  CC50: > 100 µM
BT-549; read-out: TGI
  TGI: > 100 µM
BT-549; read-out: pGI50 (converted)
  GI50: 28.8 µM
BT-549; [15]
  CC50: > 100 µM
BT-549; read-out: pTGI (converted)
  TGI: > 100 µM
HL-60(TB)
  growth at 10 µM: 84%
KM12 [5]
  growth at 10 µM: 106%
SF-268
  growth at 100 µM: 46%
EKVX
  growth at 100 µM: 60%
UACC-62
  growth at 0.1 µM: 102%
KM12 [6]; read-out: GI50
  GI50: 23.9 µM
KM12 [6]; [14]
  CC50: > 100 µM
KM12 [6]; read-out: TGI
  TGI: > 100 µM
KM12 [6]; read-out: pGI50 (converted)
  GI50: 24 µM
KM12 [6]; [15]
  CC50: > 100 µM
KM12 [6]; read-out: pTGI (converted)
  TGI: > 100 µM
COLO 205
  growth at 10 µM: 90%
SK-MEL-5 [7]
  growth at 100 µM: 38%
SK-MEL-5 [8]; read-out: GI50
  GI50: 5.81 µM
SK-MEL-5 [8]; [14]
  CC50: > 100 µM
SK-MEL-5 [8]; read-out: TGI
  TGI: > 100 µM
SK-MEL-5 [8]; read-out: pGI50 (converted)
  GI50: 5.75 µM
SK-MEL-5 [8]; [15]
  CC50: > 100 µM
SK-MEL-5 [8]; read-out: pTGI (converted)
  TGI: > 100 µM
NCI-H322M
  growth at 1000 µM: 73%
ACHN
  growth at 1000 µM: 23%
A549
  growth at 1 µM: 100%
MDA-MB-468
  CC50: > 100 µM
IGROV-1
  growth at 1 µM: 89%
NCI/ADR-RES [9]
  growth at 100 µM: 76%
SK-MEL-28; read-out: GI50
  GI50: 7.77 µM
SK-MEL-28; [14]
  CC50: > 100 µM
SK-MEL-28; read-out: TGI
  TGI: > 100 µM
SK-MEL-28; read-out: pGI50 (converted)
  GI50: 7.76 µM
SK-MEL-28; [15]
  CC50: > 100 µM
SK-MEL-28; read-out: pTGI (converted)
  TGI: > 100 µM
SN12C
  growth at 1 µM: 104%
SNB-19
  growth at 1 µM: 93%
HCT-116 [10]; read-out: GI50
  GI50: 4.2 µM
HCT-116 [10]; [14]
  CC50: > 100 µM
HCT-116 [10]; read-out: TGI
  TGI: > 100 µM
HCT-116 [10]; read-out: pGI50 (converted)
  GI50: 4.17 µM
HCT-116 [10]; [15]
  CC50: > 100 µM
HCT-116 [10]; read-out: pTGI (converted)
  TGI: > 100 µM
SF-295 [11]
  growth at 1 µM: 93%
HCT-116 [12]
  growth at 10 µM: 89%
OVCAR-4
  growth at 1 µM: 100%
PC-3
  CC50: > 100 µM
MDA-MB-231
  growth at 1 µM: 104%
SF-295 [13]
  growth at 0.1 µM: 93%
